Assay results published in ChEMBL document CHEMBL3352226, “Synthesis of novel derivatives of 4-methylbenzimidazole and evaluation of their biological activities” (Eur J Med Chem, 2014).

Columns and labels:
[1] = Antioxidant activity assessed as DPPH free radical scavenging activity incubated at 37 degC for 30 mins by microtiter plate reader based method; format: physicochemical
[2] = Antioxidant activity assessed as superoxide anion radical scavenging activity by nitroblue tetrazolium method; format: physicochemical
[3] = Toxicity against human THP1 cells assessed as reduction in cell viability after 48 hrs by trypan blue dye exclusion method; format: cell-based; conditions: thp-1, 48 h
[4] = Antiglycation activity using BSA assessed as inhibition of AGE formation incubated at 37 degC for 9 days by fluorescence assay; format: physicochemical
Leishmania major = assay: Antileishmanial activity against Leishmania major JISH118 promastigotes infected in human THP1 cells by Giemsa staining method; format: functional, organism-based, THP-1
[5] = Antiglycation activity using BSA assessed as inhibition of AGE formation incubated at 37 degC for 9 days by fluorescence assay relative to untreated control; format: physicochemical; conditions: cattle, 216 h; also: test concentration or dose not given here
[6] = Leishmania major, JISH118, THP-1, read-out: IC50

Structure (SMILES) | IC50 [1] | IC50 [2] | Activity [3] | IC50 ([4]; read-out: IC50) | IC50 (Leishmania major; thp-1) | IC50 [4] | inhibition (INH) [5] | IC50 (Leishmania major; [6])
CCCOC(=O)c1cc(O)c(O)c(O)c1 [PROPYL GALLATE] | 30.3 µM | 106 µM |  |  |  |  |  | 
Cc1cccc2nc(-c3ccc(C(=O)N/N=C/c4ccc(O)cc4)cc3)[nH]c12 | 29 µM | 101 µM | Non-toxic | 150 µM | Not Active |  |  | 
COc1ccc(/C=N/NC(=O)c2ccc(-c3nc4cccc(C)c4[nH]3)cc2)cc1 | 140 µM | 340 µM | Non-toxic |  | Not Active | Not Active | < 50% | 
Cc1cccc2nc(-c3ccc(C(=O)N/N=C/c4ccccn4)cc3)[nH]c12 | 94.3 µM | 350 µM | Non-toxic |  | Not Active | Not Active | < 50% | 
COc1cccc(/C=N/NC(=O)c2ccc(-c3nc4cccc(C)c4[nH]3)cc2)c1 | 145 µM | 345 µM | Non-toxic |  | Not Active | Not Active | < 50% | 
Cc1cccc2nc(-c3ccc(C(=O)N/N=C/c4ccc(Cl)cc4)cc3)[nH]c12 | 120 µM | 360 µM | Non-toxic |  | Not Active | Not Active | < 50% | 
COc1ccc(/C=N/NC(=O)c2ccc(-c3nc4cccc(C)c4[nH]3)cc2)cc1O | 49.1 µM | 222 µM | Non-toxic | 360 µM | Not Active |  |  | 
COC(=O)c1ccc(/C=N/NC(=O)c2ccc(-c3nc4cccc(C)c4[nH]3)cc2)cc1 | 160 µM | 322 µM | Non-toxic | 501 µM | Not Active |  |  | 
Cc1cccc2nc(-c3ccc(C(=O)N/N=C/c4ccc(F)cc4)cc3)[nH]c12 | 90.2 µM | 320 µM | Non-toxic |  | Not Active | Not Active | < 50% | 
Cc1cccc2nc(-c3ccc(C(=O)N/N=C/c4cccc(O)c4)cc3)[nH]c12 | 60.2 µM | 212 µM | Non-toxic | 280 µM | Not Active |  |  | 
C[C@@H]1O[C@@H](OC[C@H]2O[C@@H](Oc3c(-c4ccc(O)c(O)c4)oc4cc(O)cc(O)c4c3=O)[C@H](O)[C@@H](O)[C@@H]2O)[C@H](O)[C@H](O)[C@H]1O [RUTIN] |  |  |  | 294 µM |  |  |  | 
Cc1cccc2nc(-c3ccc(C(=O)N/N=C/c4ccc(O)c(Br)c4)cc3)[nH]c12 | 25.2 µM | 190 µM | Non-toxic | 350 µM | Not Active |  |  | 
Cc1cccc2nc(-c3ccc(C(=O)N/N=C/c4cc(O)cc(O)c4)cc3)[nH]c12 | 17.3 µM | 90 µM | Non-toxic | 195 µM | Not Active |  |  | 
Cc1cccc(/C=N/NC(=O)c2ccc(-c3nc4cccc(C)c4[nH]3)cc2)c1 | 150 µM | 345 µM | Non-toxic |  | Not Active | Not Active | < 50% | 
Cc1cccc2nc(-c3ccc(C(=O)N/N=C/c4cccnc4)cc3)[nH]c12 | 105 µM | 310 µM | Non-toxic |  | Not Active | Not Active | < 50% | 
Cc1cccc2nc(-c3ccc(C(=O)N/N=C/c4ccco4)cc3)[nH]c12 | 180 µM | 310 µM | Non-toxic |  | Not Active | Not Active | < 50% | 

Structure (SMILES) | IC50 [1] | IC50 [2] | Activity [3] | IC50 ([4]; read-out: IC50) | IC50 (Leishmania major; thp-1) | IC50 [4] | inhibition (INH) [5] | IC50 (Leishmania major; [6])
Cc1cccc2nc(-c3ccc(C(=O)N/N=C/c4cccc(O)c4O)cc3)[nH]c12 | 12.1 µM | 82 µM | Non-toxic | 220 µM |  |  |  | 37.8 µM
COc1ccc(/C=N/NC(=O)c2ccc(-c3nc4cccc(C)c4[nH]3)cc2)cc1OC | 120 µM | 330 µM | Non-toxic |  | Not Active | Not Active | < 50% | 
COc1ccc(O)c(/C=N/NC(=O)c2ccc(-c3nc4cccc(C)c4[nH]3)cc2)c1 | 74.2 µM | 215 µM | Non-toxic | 400 µM | Not Active |  |  | 
Cc1cccc2nc(-c3ccc(C(=O)N/N=C/c4ccccc4O)cc3)[nH]c12 | 54.1 µM | 209 µM | Non-toxic | 380 µM | Not Active |  |  | 
COc1cc(/C=N/NC(=O)c2ccc(-c3nc4cccc(C)c4[nH]3)cc2)ccc1O | 26.2 µM | 104 µM | Non-toxic | 271 µM | Not Active |  |  | 
Cc1cccc2nc(-c3ccc(C(=O)N/N=C/c4ccc([N+](=O)[O-])cc4)cc3)[nH]c12 | 138 µM | 312 µM | Non-toxic | 450 µM | Not Active |  |  | 
Cc1cccc2nc(-c3ccc(C(=O)N/N=C/c4cccs4)cc3)[nH]c12 | 110 µM | 320 µM | Non-toxic |  | Not Active | Not Active | < 50% | 
Cc1cccc2nc(-c3ccc(C(=O)N/N=C/c4ccc(O)c(O)c4)cc3)[nH]c12 | 14.2 µM | 81 µM | Non-toxic | 190 µM | Not Active |  |  | 
COc1ccc(/C=N/NC(=O)c2ccc(-c3nc4cccc(C)c4[nH]3)cc2)c(I)c1O | 40.1 µM | 210 µM | Non-toxic | 405 µM | Not Active |  |  | 
COc1ccc(/C=N/NC(=O)c2ccc(-c3nc4cccc(C)c4[nH]3)cc2)c(O)c1 | 47.5 µM | 202 µM | Non-toxic | 340 µM | Not Active |  |  | 
Cc1cccc2nc(-c3ccc(C(=O)N/N=C/c4cc(O)ccc4O)cc3)[nH]c12 | 18.5 µM | 86.1 µM | Non-toxic | 206 µM | Not Active |  |  | 
Cc1ccccc1/C=N/NC(=O)c1ccc(-c2nc3cccc(C)c3[nH]2)cc1 | 158 µM | 340 µM | Non-toxic |  | Not Active | Not Active | < 50% | 
N=C(N)c1ccc(OCCCCCOc2ccc(C(=N)N)cc2)cc1 [PENTAMIDINE] |  |  |  |  |  |  |  | 7.02 µM
Cc1cccc2nc(-c3ccc(C(=O)N/N=C/c4ccncc4)cc3)[nH]c12 | 88.4 µM | 340 µM | Non-toxic |  | Not Active | Not Active | < 50% | 
Cc1cccc2nc(-c3ccc(C(=O)N/N=C/c4ccc(O)cc4O)cc3)[nH]c12 | 27.4 µM | 92.1 µM | Non-toxic | 140 µM | Not Active |  |  | 
